Structures are written as SMILES. Like-named read-outs stand apart in the source and are kept apart here.

The test system of data set [1] is HSP70. To be noted: erythroid precursor cells; cited from earlier work.
Data set [2] deals with HSP70. Briefly: HSP70 nuclear retention in CD36+ D6 cells under EPO starvation. The class given is cell-based, human. The settings on record: CD36+ D6 from cord blood, after 20 h of treatment. As to the method: (§1) Umbilical cord blood units from normal full-term deliveries were obtained, after informed mother's consent, from the Obstetrics Unit of Hôpital Necker-Enfants Malades. CD36+ erythroid progenitors, generated from 7 days IL-6+IL3+SCF-cultured CD34 progenitors isolated from cord blood (Miltenyi CD34 Progenitor Cell Isolation Kit), were cultured in the presence of IL3+SCF+Epo in IMDM (Gibco cell culture) supplemented with 15% BIT 9500 (Stem Cell Technologies).
(§2) 5.10^4 cells were spin on slides, acetone fixated, hydrated with cold 1×PBS 1% BSA for 30 minutes, treated with formaldehyde for 15 min (Sigma), then with methanol (Prolabo) for 10 minutes at room temperature. Cells were then permeabilized with 1×PBS 0.2% triton X100 (Sigma) for 10 min at 4° C., washed and incubated in 10% BSA for 30 minutes. They were then sequentially incubated with antibodies diluted in 1×PBS 1% BSA 0.1% tween (Sigma). Nuclei were stained with DAPI and slides were examined with a confocal laser microscope (LSM 700 Carl Zeiss).

Data set [3] deals with CD36+ erythroid progenitors from cord blood. Briefly: Toxicity of KPT on CD36+ erythroid progenitors with normal EPO. Format: cell-based, human. The settings on record: cord blood CD36+ at day 6 (D6) of culture; 33 nM, 100 nM, 333 nM and 1000 nM; normal concentrations of EPO; until 20 h of treatment. As to the method:
as §1

The test system of data set [4] is CD36+ D8 cells. Briefly: Erythroid maturation of CD36+ D8 cells (MGG observations). Format: cell-based, human. The settings on record: 100 nM, 333 nM and 1000 nM, after 72 h of treatment, compared to non treated cells.
For data set [5], the system named is HSP70. In words: HSP70 nuclear localization in myelodysplastic syndrome CD36+ D8 cells. The class given is cell-based, human. To be noted: 100 nM, after 72 h of treatment, compared to non treated cells. As to the method: as §2
The test system of data set [6] is CD36+ D6. Briefly: Cell death of CD36+ D6 cells during EPO starvation. Format: cell-based, human. To be noted: EPO starvation during 20 h. As to the method: as §1

For the compound `CCC(=C/[C@H](C)C/C=C/C(C)=C/[C@@H](C)C(=O)[C@@H](C)[C@H](O)[C@@H](C)C/C(C)=C/C(=O)O)/C=C/[C@@H]1OC(=O)C=C[C@@H]1C` [Leptomycin B], the HSP70 nuclear retention result in data set [1] is on record as “induces HSP70 nuclear retention”.

`FC(F)(F)c1cc(-c2ncn(/C=C\c3nnco3)n2)cc(C(F)(F)F)c1` [KPT]: the HSP70 nuclear retention entry in data set [2] was “induces HSP70 nuclear retention”. In data set [3], the “toxicity for CD36+ erythroid progenitors” value is “not toxic”. Moreover, in data set [4], the “maturation index (mature*100/polychromatic)” value was “increases” and the “number of mature cells” value is given as “increases the number of mature cells”. The HSP70 nuclear localization result in data set [5] is “induces HSP70 nuclear localization”. The “decrease of cell death compared to the absence of KPT treatment” value in data set [6] (100 nM) is recorded as 49%. The “decrease of cell death compared to the absence of KPT treatment” value in data set [6] (333 nM) stood at 39%.

The values are drawn from patent US9675590B2, “Methods and pharmaceutical compositions for the treatment of myelodysplastic syndromes” (INSERM (INSTITUT NATIONAL DE LA SANTÉ ET DE LA RECHERCHE …, priority 2014, dated 2017).
